{"source": "patent US11535599B2", "about": "“Benzisoxazole derivative” (Sumitomo Pharma Co., Ltd., priority 2020, dated 2022)", "key": {"[1]": {"test": "Dynamic vapor adsorption (DVS), hygroscopicity", "assay_type": "physicochemical", "settings": "0-90% RH, 25° C.", "experimental": "Dynamic vapor adsorption: the hygroscopicity was evaluated with a dynamic vapor adsorption (DVS) instrument (IGAsorp, Hiden Isochema, Warrington, England) at room temperature. The water adsorption/desorption was studied as a function of relative humidity (RH) in the range of 0-90% at 25° C. The relative humidity in the chamber was made to increase by 10% RH, and the humidity was retained until the humidity state of the atmosphere and the weight variation of solid achieved equilibrium. The equilibration test was continued until the test was passed or failed 5 or 10 hours later. At this time point, RH increased by 10%, and the absorption process was repeated until the RH achieved to 90% RH and the humidity state achieved equilibrium. During the test, the moisture sorption was being monitored. For the desorption, the relative humidity was decreased in a similar manner to measure a perfect adsorption/desorption cycle. The cycle was repeated as appropriate. All the experiments were operated in dm/dt mode (weight variation over time) to determine each equilibrating endpoint. About 5-10 mg of the solid was used. The date analyses were carried out with Hisorp v4.02 (Hiden Isochema, Warrington, England)."}, "[2]": {"test": "Thermogravimetric analysis (TGA)", "assay_type": "physicochemical", "settings": "until melting temperature", "experimental": "Thermogravimetric analysis: the thermogravimetric analysis (TGA) was carried out with a TGA instrument (TGA Q500, TA Instruments, New Castle, Del., USA). For each trial, about 1-10 mg of the solid sample was put in an open aluminium pot, and heated at a rate of 5-10° C./min under a nitrogen purge of 60 mL/min. The data analysis was carried out with Universal Analysis 2000 Version 4.1D (TA Instruments, New Castle, Del., USA)."}, "[3]": {"test": "Differential scanning calorimetry (DSC)", "assay_type": "physicochemical", "experimental": "Differential scanning calorimetry: the thermal characteristic was evaluated with a differential scanning calorimetry (DSC) instrument (DSCQ1000, TA Instruments, New Castle, Del., USA). For each trial, about 1-10 mg of the solid sample was put in a standard aluminium pot aerated with a pinhole, and heated at a rate of 5-10° C./min under a nitrogen purge of 50 mL/min. The data analysis was carried out with Universal Analysis 2000 Version 4.1D (TA Instruments, New Castle, Del., USA)."}, "[4]": {"test": "Shaking suspensions of crystalline forms in solvents (form conversion)", "assay_type": "physicochemical", "settings": "shaking forms I-III in several kinds of solvents for 9-11 days", "experimental": "Crystalline Example 13 of form III can be prepared by shaking a suspension of Example 13 in an organic solvent (e.g. ethanol, chloroform, acetonitrile, tetrahydrofuran, ethyl acetate, acetone, and tetrahydrofuran/heptane mixture (1:1)) at about 50° C. for 9-11 days. Or, it can be prepared by shaking a suspension of Example 13 in an organic solvent (e.g. acetonitrile, ethyl acetate, acetone, acetone/water mixture (1:1), and tetrahydrofuran/heptane mixture (1:1)) at about 25° C. for 9-11 days. Or, it can be prepared by shaking a suspension of a mixture of forms I and II of Example 13 in an organic solvent (e.g. ethanol, 2-propanol, chloroform, acetonitrile, tetrahydrofuran, ethyl acetate, acetone, and tetrahydrofuran/heptane mixture (1:1)) at about 50° C. for 9-11 days. Or, it can be prepared by shaking a suspension of a mixture of forms I and II of Example 13 in an organic solvent (e.g. 2-propanol, chloroform, acetonitrile, tetrahydrofuran, ethyl acetate, acetone, methanol/water mixture (1:1), 2-propanol/water mixture (1:1), acetone/water mixture (1:1), and tetrahydrofuran/heptane mixture (1:1)) at about 25° C. for 9-11 days. Or, it can be prepared by heating a solution of Example 13 in tert-butyl methyl ether at about 80° C. for about one hour, and leaving the solution to stand at room temperature for a day. […]"}, "[5]": {"system": "oxaliplatin chemotherapy-induced peripheral neuropathy model", "test": "Anti-allodynia effect in chemotherapy-induced peripheral neuropathy model (acetone test)", "assay_type": "in vivo, rat", "settings": "Example 13 100 mg/kg oral once a day 17 times; duloxetine 30 mg/kg oral single", "source_text": "As one of chemotherapy-induced peripheral neuropathy, sensory disturbance due to neuropathy caused by a platinating agent that is an anticancer agent such as cisplatin and oxaliplatin is known, and the symptom is difficult to be recovered even after the medication is discontinued. The therapeutic effect for sensory disturbance caused by repetitive administration of oxaliplatin was studied in the present test.\nTo male Crl: CD (SD) rats (7 weeks old) (CHARLES RIVER LABORATORIES JAPAN, INC.), oxaliplatin (5 mg/kg) was intraperitoneally administered for the two consecutive days in a week, totally 6 times, to prepare chemotherapy-induced peripheral neuropathy models. The compound of Example 13 (100 mg/kg) was repeatedly orally administered once a day, totally 17 times. […] In the acetone test, 0.1 mL of acetone was sprayed to the foot sole of the rat hind paw, and the reaction was evaluated according a scoring (Cold Score). When there was no reaction for 20 seconds after spraying acetone, Score 0 was recorded and the observation was stopped. When there was any reaction for the 20 seconds, the observation was continued until 40 seconds after spraying, and the score was recorded according to the evaluation scale. The acetone spray was done twice each for right and left hind paws, and the total score was calculated. […]"}, "[6]": {"system": "unilateral lesion model of nigrostriatal dopamine neuron induced with 6-OHDA", "test": "Extending duration of levodopa-induced rotational behavior in 6-OHDA unilateral lesion model", "assay_type": "in vivo, rat", "settings": "Examples 10 or 30 mg/kg oral; rasagiline 0.6 mg/kg; with levodopa 5 mg/kg i.p."}, "[7]": {"system": "reserpine-induced Parkinson's disease model mouse", "test": "Potentiating effect of levodopa-induced hyperactivity in reserpine-induced Parkinson's disease model mouse", "assay_type": "in vivo", "settings": "Examples 12.5 or 25 mg/kg oral; rasagiline 3 or 10 mg/kg; with levodopa 200 mg/kg i.p.", "experimental": "Dopamine-depleted mice due to reserpine treatment are model mice of akinesia symptoms in Parkinson's disease, said symptoms are relieved with levodopa (L-DOPA). The effect of the present compounds for potentiating the levodopa's effect was tested.\nIn the present test, male Crl: CD1 (ICR) mice (CHARLES RIVER LABORATORIES JAPAN, INC.) were used. 20-24 hours before starting the movement measurement, reserpine (3 mg/kg) was intraperitoneally administered to the mouse. One hour before starting the movement measurement, the present compound (12-.5 mg/kg or 25 mg/kg of. Examples 1, 2, 3, 4, and 5) was orally administered to the mouse. Shortly before starting the movement measurement, levodopa (200 mg/kg) with benserazide whose amount was ¼ of levodopa in free form was intraperitoneally administered to the mouse. The movement measurement was carried out for 90 minutes, and each total movement was compared."}, "[8]": {"system": "levodopa-induced dyskinesia in 6-OHDA unilateral lesion model", "test": "Effect for inhibiting levodopa-induced dyskinesia", "assay_type": "in vivo, rat", "settings": "Examples 30 or 100 mg/kg, rasagiline 0.2 or 0.6 mg/kg, daily for two weeks", "source_text": "A unilateral lesion model of nigrostriatal dopamine neuron induced with 6-hydroxydopamine (6-OHDA) is broadly used for evaluating the drug efficacy for treating Parkinson's disease, as mentioned in Test 2. In addition, it is known that dyskinesia is developed when the present model receives repetitive administration of levodopa, which is similar to the phenomenon that patients of Parkinson's disease who have received long-term administration of levodopa develop dyskinesia. With the present model, the effect of the present compound on the dyskinesia induced by repetitive administration of levodopa was evaluated. As shown in Test 2, a unilateral lesion model of nigrostriatal dopamine neuron was prepared. One day before starting the repetitive administration of levodopa, levodopa methyl ester hydrochloride (5.86 mg/kg) containing benserazide hydrochloride ([…]) (whose ratio was 4:1 in terms of free form) was intraperitoneally administered to the model, and the rotational behavior of the model was observed from 20 minutes to 140 minutes after the administration. The models were classified considering three factors of the total rotation number (20-140 minutes after the administration), the later term of the rotation (120-140 minutes after the administration), and the rotational duration, so that the dispersion of each group could be equal. Two days after the classification, the repetitive administration of levodopa methyl ester hydrochloride (6 mg/kg) and benserazide hydrochloride (12 mg/kg) once a day for two weeks was started. […] The evaluation of dyskinesia was done after one week and two weeks of the repetitive administration. […]"}}, "data": [{"smiles": "C[C@H](c1noc2ccccc12)S(N)(=O)=O", "note": "[Example 13 form I, (1R)-1-(1,2-benzoxazol-3-yl)ethane-1-sulfonamide]", "values": [{"measurement": "weight variation in DVS", "setting": "[1]", "result": "≤ 1", "unit": "%"}, {"measurement": "weight reduction in TGA", "setting": "[2]", "result": "no weight reduction"}, {"measurement": "crystalline stability (DSC)", "setting": "[3]", "result": "high"}]}, {"smiles": "C[C@H](c1noc2ccccc12)S(N)(=O)=O", "note": "[Example 13 form III, (1R)-1-(1,2-benzoxazol-3-yl)ethane-1-sulfonamide]", "values": [{"measurement": "relative stability of crystalline forms", "setting": "[4]", "result": "most stable form"}]}, {"smiles": "CNCC[C@H](Oc1cccc2ccccc12)c1cccs1", "note": "[duloxetine, reference compound]", "values": [{"measurement": "Cold Score in acetone test", "setting": "[5]", "result": "significantly lower Cold Score"}]}, {"smiles": "C#CCN[C@@H]1CCc2ccccc21", "note": "[rasagiline, reference compound]", "values": [{"measurement": "rotational number in the late phase (100-120 minutes)", "setting": "[6]", "result": "significantly increased the rotational number in the late phase"}, {"measurement": "levodopa-induced hyperactivity (total movement, 90 minutes)", "setting": "[7]", "result": "a tendency to increase the movement, but the increase had no statistically-significant difference"}, {"measurement": "dyskinesia induced by repetitive administration of levodopa (AIMS score)", "setting": "[8]", "result": "significantly got worse"}]}]}
